Numbers after ± are expanded uncertainties.
Experiment: xn = mol fraction of the nth substance listed
Conditions: 323.15 K, 100 kPa, Liquid; for electrical conductivity: Alternating current cell with electrodes; for mass density: Vibrating tube method

CCCC[N+]1(C)CCCC1.N#CN=C=[N-] [1-butyl-1-methylpyrrolidinium dicyanamide] + O=C1CCCO1
electrical conductivity [S/m]
Conditions | Frequency=0.005454 MHz | Frequency=0.006 MHz | Frequency=0.00652174 MHz | Frequency=0.00694444 MHz | Frequency=0.0075 MHz | Frequency=0.008 MHz | Frequency=0.00857143 MHz | Frequency=0.00892857 MHz | Frequency=0.00961538 MHz | Frequency=0.01 MHz
x1 = 0.0463 | – | 2.01 ± 0.037 | 2.01 ± 0.037 | 2.01 ± 0.037 | 2.01 ± 0.037 | 2.01 ± 0.037 | 2.01 ± 0.037 | 2.01 ± 0.037 | 2.01 ± 0.037 | 2.01 ± 0.037
x1 = 0.0987 | – | 3.08 ± 0.039 | 3.08 ± 0.039 | 3.08 ± 0.039 | 3.08 ± 0.039 | 3.08 ± 0.039 | 3.08 ± 0.039 | 3.08 ± 0.039 | 3.08 ± 0.039 | 3.08 ± 0.039
x1 = 0.1449 | – | 3.57 ± 0.038 | 3.57 ± 0.038 | 3.57 ± 0.038 | 3.57 ± 0.038 | 3.57 ± 0.038 | 3.57 ± 0.038 | 3.57 ± 0.038 | 3.57 ± 0.038 | 3.57 ± 0.038
x1 = 0.1859 | – | 3.86 ± 0.039 | 3.86 ± 0.039 | 3.86 ± 0.039 | 3.86 ± 0.039 | 3.86 ± 0.039 | 3.86 ± 0.039 | 3.86 ± 0.039 | 3.86 ± 0.039 | 3.86 ± 0.039
x1 = 0.2493 | – | 3.89 ± 0.039 | 3.9 ± 0.039 | 3.9 ± 0.039 | 3.9 ± 0.039 | 3.9 ± 0.039 | 3.9 ± 0.039 | 3.9 ± 0.039 | 3.9 ± 0.039 | 3.9 ± 0.039
x1 = 0.3029 | – | 3.88 ± 0.039 | 3.88 ± 0.039 | 3.88 ± 0.039 | 3.88 ± 0.039 | 3.88 ± 0.039 | 3.88 ± 0.039 | 3.88 ± 0.039 | 3.88 ± 0.039 | 3.88 ± 0.039
x1 = 0.3845 | – | 3.74 ± 0.038 | 3.74 ± 0.038 | 3.74 ± 0.038 | 3.74 ± 0.038 | 3.74 ± 0.038 | 3.74 ± 0.038 | 3.74 ± 0.038 | 3.74 ± 0.038 | 3.74 ± 0.038
x1 = 0.4985 | – | 3.46 ± 0.035 | 3.46 ± 0.035 | 3.46 ± 0.035 | 3.46 ± 0.035 | 3.46 ± 0.035 | 3.46 ± 0.035 | 3.46 ± 0.035 | 3.46 ± 0.035 | 3.46 ± 0.035
x1 = 0.6954 | – | 2.99 ± 0.03 | 2.99 ± 0.03 | 2.99 ± 0.03 | 2.99 ± 0.03 | 2.99 ± 0.03 | 2.99 ± 0.03 | 2.99 ± 0.03 | 3 ± 0.03 | 3 ± 0.03
x1 = 0.9013 | 2.633 ± 0.026 | 2.633 ± 0.026 | 2.63 ± 0.027 | 2.63 ± 0.027 | 2.63 ± 0.027 | 2.63 ± 0.027 | 2.63 ± 0.027 | 2.63 ± 0.027 | 2.63 ± 0.027 | 2.63 ± 0.027
x1 = 1 | 2.529 ± 0.025 | 2.529 ± 0.025 | 2.529 ± 0.025 | 2.529 ± 0.025 | 2.529 ± 0.025 | 2.529 ± 0.025 | 2.529 ± 0.025 | 2.529 ± 0.025 | 2.529 ± 0.025 | 2.529 ± 0.025

Conditions | mass density [kg/m3]
x1 = 0.0987 | 1082.02 ± 8.7
x1 = 0.1859 | 1067.9 ± 8.6
x1 = 0.3029 | 1051.93 ± 8.4
x1 = 0.4985 | 1031.43 ± 8.3
x1 = 0.6954 | 1016.21 ± 8.2
x1 = 0.9013 | 1004.23 ± 8.1
x1 = 1 | 999.525 ± 8

Source: the NIST ThermoML archive (doi:10.1016/j.jct.2015.08.014)
